Molecular target: GST–VCB protein complex (Homo sapiens, UniProt P40337)
Format: binding
Conditions: reported FP Kd versus TR-FRET Ki

Chain of GST–VCB protein complex (P40337 54-213): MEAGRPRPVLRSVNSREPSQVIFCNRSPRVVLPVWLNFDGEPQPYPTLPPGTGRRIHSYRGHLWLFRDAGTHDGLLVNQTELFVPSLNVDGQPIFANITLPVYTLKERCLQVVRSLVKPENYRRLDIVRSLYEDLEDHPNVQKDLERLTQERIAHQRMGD
Chain of GST–VCB protein complex (Q15369 17-112, further chain): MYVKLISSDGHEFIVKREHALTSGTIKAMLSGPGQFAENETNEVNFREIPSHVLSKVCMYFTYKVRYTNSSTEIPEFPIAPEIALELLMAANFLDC
Chain of GST–VCB protein complex (Q15370 whole entry, further chain): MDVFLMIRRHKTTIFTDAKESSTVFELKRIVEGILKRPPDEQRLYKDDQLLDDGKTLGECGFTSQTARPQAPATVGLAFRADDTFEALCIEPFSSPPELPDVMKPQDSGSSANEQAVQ

CC(=O)N[C@H](C(=O)N1C[C@H](O)C[C@H]1C(=O)NCc1ccc(-c2scnc2C)cc1)C(C)(C)C [VH032 (1), (2S,4R)-1-((S)-2-Acetamido-3,3-dimethylbutanoyl)-4-hydroxy-N-(4-(4-methylthiazol-5-yl)benzyl)pyrrolidine-2-carboxamide]
sensitivity of TR-FRET assay over FAM–HIF–1α peptide (19 mer)-based FP assay: 4.49 fold

Cc1ncsc1-c1ccc(CNC(=O)[C@@H]2C[C@@H](O)CN2C(=O)[C@@H](NC(=O)C2(C#N)CC2)C(C)(C)C)cc1 [VH298 (2), (2S,4R)-1-((S)-2-(1-Cyanocyclopropanecarboxamido)-3,3-dimethylbutanoyl)-4-hydroxy-N-(4-(4-methylthiazol-5-yl)benzyl)pyrrolidine-2-carboxamide]
sensitivity of TR-FRET assay over FAM–HIF–1α peptide (19 mer)-based FP assay: 4.23 fold
